Like-named read-outs stand apart in the source and are kept apart here. Non-standard residues stand in square brackets, D forms with d. Residues, ends and D or L forms follow the SMILES beside them. ξ: configuration not given here. Aoe(9ξ) = N[C@@H](CCCCCC(=O)C1CO1)C(=O)O; dPip = O=C(O)[C@H]1CCCCN1
Legend:
P. falciparum 3D7 = assay: 3-day SYBR Green I growth inhibition assay (GIA), strain 3D7; format: cell-based, Plasmodium falciparum; conditions: read-out: Antiplasmodial activity EC50, 3D7
Method: (§1) A 3-day SYBR Green I inhibition EC50 assay was performed as described previously. Briefly, highly synchronized ring-stage parasites by 5% sorbitol (1% parasitemia and 2% hematocrit) were incubated in a 96-well plate with compounds in a total volume of 200 μL. […] The parasites were cultured for 72 h before SYBR Green I staining as described above. The EC50 was calculated by GraphPad Prism. DHA was used as a positive control, and the final concentration of DMSO was 1%.

[1] = In vitro cytotoxicity analysis (CellTiter-Glo), HepG2; conditions: human
Method: (§2) In all, 1% DMSO was used as a negative control. The inhibition of each drug was normalized to that of the DMSO control. EC50 was calculated by GraphPad Prism. Three independent assays with two technical replicates each time were conducted in this experiment.

HepG2 cells = assay: as above; conditions: for Selectivity index (range over HepG2 and 293T): HepG2 and 293T vs 3D7; for EC50: read-out: Cytotoxicity EC50, HepG2, 72 h, CellTiter-Glo
Method: as §2

[2] = In vitro cytotoxicity analysis (CellTiter-Glo), 293T; conditions: human
Method: as §2

293T cells = assay: as above; conditions: for EC50: read-out: Cytotoxicity EC50, 293T, 72 h, CellTiter-Glo
Method: as §2

P. falciparum Dd2 = assay: 3-day SYBR Green I GIA, multidrug-resistant strain Dd2; format: cell-based, Plasmodium falciparum; conditions: 3-day SYBR Green I GIA, multidrug-resistant strain Dd2, read-out: Antiplasmodial activity EC50, Dd2
Method: as §1

[3] = Plasmodium falciparum, 3D7, 72 h, 3-day SYBR Green I GIA, drug-sensitive strain 3D7
[4] = 293T cells, Cytotoxicity EC50, 293T, 72 h, CellTiter-Glo
[5] = 3-day SYBR Green I GIA, drug-sensitive strain 3D7

| EC50 (P. falciparum 3D7; [3]) [nM] | EC50 (P. falciparum Dd2; Plasmodium falciparum, 72 h) [nM] | EC50 (P. falciparum 3D7; [5]) [nM] | EC50 (P. falciparum Dd2) [nM] | Structure (SMILES) | EC50 at 72 h ([1]; HepG2 cells) [nM] | Selectivity index for HepG2 (EC50 HepG2/EC50 3D7) (HepG2 cells) | EC50 at 72 h [2, 4] [nM] | Selectivity index for 293T (EC50 293T/EC50 3D7) (293T cells) | Selectivity index (range over HepG2 and 293T) (HepG2 cells) | EC50 (HepG2 cells) [nM] | EC50 (293T cells) [nM] | EC50 (P. falciparum 3D7; Plasmodium falciparum, 3D7, 72 h) [nM] | EC50 at 72 h [1] [nM] | EC50 at 72 h [2] [nM] |
| --- | --- | --- | --- | --- | --- | --- | --- | --- | --- | --- | --- | --- | --- | --- |
| 63 |  |  |  | COc1ccc(-c2nc(N3CCOCC3)c3sc(CN(C)c4ncc(C(=O)NO)cn4)cc3n2)cn1 [Fimepinostat, reference compound] | 70 | 1 | 69 | 1 |  |  |  |  |  |  |
| 4.4 ± 0.2 | 7 ± 0.2 |  |  | Cl.Cn1cc(CN2CC3CN(c4ncc(C(=O)NO)cn4)CC3C2)c2ccccc21 (stereo not drawn) [JX21002] | 128 ± 2 | 29 | 307 ± 4 | 70 | 24–70 |  |  |  |  |  |
| 3 ± 0.7 | 3.2 ± 0.1 |  |  | Cn1cc(CN2CCC3(CCN(c4ncc(C(=O)NO)cn4)C3)C2)c2ccccc21 (stereo not drawn) [JX21011] | 113 ± 1 | 38 | 72 ± 10 | 24 | 24–70 |  |  |  |  |  |
| 16.9 ± 0.8 | 10.7 ± 0.2 |  |  | Cl.Cn1cc(CN2CC3(CCN(c4ncc(C(=O)NO)cn4)CC3)C2)c2ccccc21 [JX21014] | 348 ± 24 | 21 | 1130 ± 26 | 67 |  |  |  |  |  |  |
| 28.9 ± 1.2 | 32.4 ± 1.8 |  |  | Cl.Cn1cc(CN2CCC3(CCCN(c4ncc(C(=O)NO)cn4)C3)CC2)c2ccccc21 [JX21017] | 2350 ± 93 | 98 | 4497 ± 33 | 156 |  |  |  |  |  |  |
| 3.5 ± 0.2 | 2.18 ± 0.02 |  |  | Cl.O=C(NO)c1cnc(N2CCC3(CCN(Cc4ccc5ccccc5c4)C3)C2)nc1 (stereo not drawn) [JX21101] | 651 ± 63 | 186 | 1160 ± 193 | 331 |  |  |  |  |  |  |
| 1.6 ± 0.3 | 3 ± 0.1 |  |  | COc1ccc2c(c1)c(CN1CCC3(CCN(c4ncc(C(=O)NO)cn4)C3)C1)cn2C.Cl (stereo not drawn) [JX21104] | 534 ± 45 | 176 | 659 ± 128 | 217 |  |  |  |  |  |  |
| 9.8 ± 0.3 | 7 ± 0.3 |  |  | Cl.O=C(NO)c1cnc(N2CCC3(CCN(Cc4ccc5c(c4)CCO5)C3)C2)nc1 (stereo not drawn) [JX21109] | 1310 ± 73 | 133 | 2560 ± 113 | 260 |  |  |  |  |  |  |
|  |  | 40.4 ± 4.1 | 28.3 ± 3.8 | Cl.O=C(NO)c1cnc(N2CCC3(CCN(CC4CCCCC4)C3)C2)nc1 (stereo not drawn) [JX21112] |  | 62 |  | 15 |  | 2490 ± 520 | 607 ± 42 |  |  |  |
|  |  | 67.5 ± 5.3 | 112 ± 13.1 | Cl.O=C(NO)c1cnc(N2CCC3(CCN(Cc4coc5ccccc45)C3)C2)nc1 (stereo not drawn) [JX21113] |  | > 148 |  | 45 |  | > 10000 | 3020 ± 67 |  |  |  |
|  |  | 45.9 ± 11.8 | 76.2 ± 9.9 | Cl.O=C(NO)c1cnc(N2CCC3(CCN(Cc4ccnc5ccccc45)C3)C2)nc1 (stereo not drawn) [JX21114] |  | 86 |  | 41 |  | 3930 ± 537 | 1859 ± 12 |  |  |  |
| 4.8 ± 0.1 | 7.2 ± 0.2 |  |  | Cl.O=C(NO)c1cnc(N2CCC3(CCN(Cc4csc5ccccc45)C3)C2)nc1 (stereo not drawn) [JX21115] | 864 ± 76 | 179 | 482 ± 42 | 100 |  |  |  |  |  |  |
|  |  | 21.7 ± 0.2 | 33.9 ± 0.3 | Cl.O=C(NO)c1cnc(N2CCC3(CCN(Cc4ccc(-c5ccccc5)cc4)C3)C2)nc1 (stereo not drawn) [JX21116] |  | 137 |  | 111 |  | 2960 ± 152 | 2410 ± 118 |  |  |  |
| 6.4 ± 0.3 | 7.61 ± 0.05 |  |  | Cl.O=C(NO)c1cnc(N2CCC3(CCN(Cc4cc5ccccc5o4)C3)C2)nc1 (stereo not drawn) [JX21117] | 1640 ± 25 | 255 | 1610 ± 334 | 252 |  |  |  |  |  |  |
| 5.61 ± 0.04 | 6.4 ± 1.3 |  |  | Cl.O=C(NO)c1cnc(N2CCC3(CCN(Cc4cc5ccccc5s4)C3)C2)nc1 (stereo not drawn) [JX21118] | 1670 ± 230 | 298 | 1640 ± 122 | 292 |  |  |  |  |  |  |
|  |  | 53.3 ± 0.5 | 39 ± 4 | Cl.O=C(NO)c1cnc(N2CCC3(CCN(Cc4cccnc4)C3)C2)nc1 (stereo not drawn) [JX21119] |  | 120 |  | 131 |  | 6420 ± 540 | 6998 ± 57 |  |  |  |
|  |  | 18.6 ± 3.9 | 23.2 ± 1.2 | Cl.O=C(NO)c1cnc(N2CCC3(CCN(Cc4ccsc4)C3)C2)nc1 (stereo not drawn) [JX21120] |  | 114 |  | 211 |  | 2120 ± 165 | 3930 ± 374 |  |  |  |
|  |  | 92.5 ± 11.3 | 61.6 ± 4.8 | Cl.O=C(NO)c1cnc(N2CCC3(CCN(CC4CCCC4)C3)C2)nc1 (stereo not drawn) [JX21121] |  | > 108 |  | > 108 |  | > 10000 | > 10000 |  |  |  |
|  |  | 72.9 ± 10 | 74.4 ± 27.4 | Cl.O=C(NO)c1cnc(N2CCC3(CCN(Cc4cnc5ccccn45)C3)C2)nc1 (stereo not drawn) [JX21122] |  | > 137 |  | > 137 |  | > 10000 | > 10000 |  |  |  |
| 6.2 ± 1.3 | 7.2 ± 0.3 |  |  | Cl.Cn1c(CN2CCC3(CCN(c4ncc(C(=O)NO)cn4)C3)C2)cc2ccccc21 (stereo not drawn) [JX21123] | 1250 ± 62 | 202 | 1200 ± 156 | 193 |  |  |  |  |  |  |
| 5.8 ± 0.9 | 4.3 ± 0.5 |  |  | Cl.Cn1nc(CN2CCC3(CCN(c4ncc(C(=O)NO)cn4)C3)C2)c2ccccc21 (stereo not drawn) [JX21124] | 1130 ± 168 | 195 | 1330 ± 29 | 229 |  |  |  |  |  |  |
|  |  | 6 ± 0.4 | 4.9 ± 0.7 | Cl.O=C(NO)c1cnc(N2CCC3(CCN(Cc4cccc5ccccc45)C3)C2)nc1 (stereo not drawn) [JX21125] |  | 136 |  | 207 |  | 815 ± 48 | 1240 ± 185 |  |  |  |
| 8 ± 0.5 | 7.8 ± 1.3 |  |  | Cl.Cn1cc(CN2CCC3(CCN(c4ncc(C(=O)NO)cn4)C3)C2)c2ccncc21 (stereo not drawn) [JX21129] | 1530 ± 69 | 192 | 1120 ± 98 | 141 |  |  |  |  |  |  |
| 8.4 ± 0.4 | 7.5 ± 2 |  |  | Cl.Cn1cc(CN2CCC3(CCN(c4ncc(C(=O)NO)cn4)C3)C2)c2cccnc21 (stereo not drawn) [JX21130] | 1180 ± 84 | 140 | 4640 ± 375 | 552 |  |  |  |  |  |  |
|  |  | 7 ± 0.4 | 9.6 ± 0.5 | Cl.O=C(NO)c1cnc(N2CCC3(CCN(Cc4ccc5ncccc5c4)C3)C2)nc1 (stereo not drawn) [JX21137] |  | 179 |  | 254 |  | 1250 ± 190 | 1770 ± 28 |  |  |  |
| 28.8 ± 18.5 | 21.2 ± 0.9 |  |  | Cl.O=C(NO)c1cnc(N2CCC3(CCN(Cc4c5ccccc5cc5ccccc45)C3)C2)nc1 (stereo not drawn) [JX21138] | 1310 ± 14 | 45 | 1990 ± 559 | 69 |  |  |  |  |  |  |
|  |  | 7.9 ± 1 | 3.1 ± 0.3 | Cl.O=C(NO)c1cnc(N2CCC3(CCN(Cc4ccc5ccccc5n4)C3)C2)nc1 (stereo not drawn) [JX21143] |  | 49 |  | 368 |  | 388 ± 58 | 2910 ± 655 |  |  |  |
|  |  |  |  | O=C(CCCCC[C@@H]1NC(=O)[C@H]2CCCCN2C(=O)[C@H](Cc2ccccc2)NC(=O)[C@H](Cc2ccccc2)NC1=O)C1CO1 (stereo partly drawn) [Trapoxin A, reference compound] (cyclo(FF[dPip][Aoe(9ξ)])) |  | 77 |  | 9 |  |  |  | 82 | 6320 | 724 |

| Structure (SMILES) | EC50 (P. falciparum 3D7; [3]) [nM] | EC50 (P. falciparum Dd2; Plasmodium falciparum, 72 h) [nM] | EC50 (P. falciparum 3D7; [5]) [nM] | EC50 (P. falciparum Dd2) [nM] | EC50 at 72 h ([1]; HepG2 cells) [nM] | Selectivity index for HepG2 (EC50 HepG2/EC50 3D7) (HepG2 cells) | EC50 at 72 h [2, 4] [nM] | Selectivity index for 293T (EC50 293T/EC50 3D7) (293T cells) | Selectivity index (range over HepG2 and 293T) (HepG2 cells) | EC50 (HepG2 cells) [nM] | EC50 (293T cells) [nM] | EC50 (P. falciparum 3D7; Plasmodium falciparum, 3D7, 72 h) [nM] | EC50 at 72 h [1] [nM] | EC50 at 72 h [2] [nM] |
| --- | --- | --- | --- | --- | --- | --- | --- | --- | --- | --- | --- | --- | --- | --- |
| CN(c1ncc(C(=O)NO)cn1)C1CCN(Cc2cn(C)c3ccccc23)CC1.Cl [JX21006] | 26.5 ± 1.2 | 32 ± 2.5 |  |  | 37 ± 10 | 1 | 118 ± 24 | 4 |  |  |  |  |  |  |
| Cl.O=C(NO)c1cnc(N2CCC3(CCNC3)C2)nc1 (stereo not drawn) [JX21131] |  |  | 40.4 ± 9.2 | 20.7 ± 2.4 |  | > 248 |  | > 248 |  | > 10000 | > 10000 |  |  |  |

Reference: publication PMC7733455, “A novel multistage antiplasmodial inhibitor targeting Plasmodium falciparum histone deacetylase 1” (Cell Discovery, 2020)
